According to the supplement of paper PMC10883282:
± gives the standard deviation of the averaged measurements.

Test system: RD-ES
Assay: relative viability vs DMSO control (72 h) (fraction); higher = more viable cells
Procedure, shortened: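 Relative viability is percent growth read by ATPLite and averaged over up to triplicate wells. Sarcoma cells were seeded in 384-well plates to reach 80–90% confluence and given 2.5 µl of serially diluted compound after 24 h, from source plates of 10 mM to 0.0002 mM. Incubation lasted 72 h at 37 °C, 5% CO2, with 0.1% DMSO vehicle and a 5 µM positive control, and the data were rescaled so 1 equals full and 0 equals none.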

SMILES	relative viability (0.00017 µM)	relative viability (0.00051 µM)	relative viability (0.00152 µM)	relative viability (0.00457 µM)	relative viability (0.01372 µM)	relative viability (0.04115 µM)	relative viability (0.1235 µM)	relative viability (0.3704 µM)	relative viability (1.111 µM)	relative viability (3.333 µM)	relative viability (10 µM)
CO[C@H]1C[C@@H]2CC[C@@H](C)[C@@](O)(O2)C(=O)C(=O)N2CCCC[C@H]2C(=O)O[C@H]([C@H](C)C[C@@H]2CC[C@@H](OP(C)(C)=O)[C@H](OC)C2)CC(=O)[C@H](C)/C=C(\C)[C@@H](O)[C@@H](OC)C(=O)[C@H](C)C[C@H](C)/C=C/C=C/C=C/1C [Ridaforolimus]	0.988 ± 0.013	0.978 ± 0.019	0.893 ± 0.039	0.804 ± 0.0091	0.754 ± 0.019	0.71 ± 0.011	0.6822 ± 0.0053	0.674 ± 0.0087	0.693 ± 0.025	0.66 ± 0.026	0.627 ± 0.021
O=C(Cc1ccc(-c2ccc(OCCN3CCOCC3)cc2)cn1)NCc1ccccc1 [KX2-391]	0.984 ± 0.025	1.002 ± 0.0063	1.01 ± 0.029	0.996 ± 0.017	0.973 ± 0.022	0.674 ± 0.021	0.0817 ± 0.0038	0.0547 ± 0.0048	0.0489 ± 0.0023	0.0417 ± 0.0023	0.0395 ± 0.0014
COc1cc2nccc(Oc3ccc(NC(=O)Nc4cc(C)on4)c(Cl)c3)c2cc1OC [Tivozanib]	0.987 ± 0.038	1.01 ± 0.026	0.9944 ± 0.0095	1.02 ± 0.038	1.02 ± 0.022	1.03 ± 0.02	1 ± 0.024	1.02 ± 0.018	0.981 ± 0.031	0.912 ± 0.036	0.768 ± 0.02
CCc1cc2c(cc1N1CCC(N3CCOCC3)CC1)C(C)(C)c1[nH]c3cc(C#N)ccc3c1C2=O [Alectinib]	0.9941 ± 0.0039	0.997 ± 0.011	0.993 ± 0.016	0.997 ± 0.025	0.988 ± 0.026	1 ± 0.029	1.03 ± 0.039	0.988 ± 0.036	1.04 ± 0.029	1.04 ± 0.014	1.03 ± 0.034
COCc1c(-c2cc3cc(C)cc(OC)c3s2)c2c(N)ncnn2c1CN1CCNC(=O)C1 [Rogaratinib]	1.04 ± 0.027	0.997 ± 0.028	1.03 ± 0.012	1.02 ± 0.032	1.03 ± 0.013	1 ± 0.036	0.971 ± 0.043	0.958 ± 0.013	0.91 ± 0.029	0.774 ± 0.014	0.455 ± 0.0058
CN1CCC(COc2cnc(-c3cccc(Cn4nc(-c5cccc(C#N)c5)ccc4=O)c3)nc2)CC1 [Tepotinib]	0.997 ± 0.016	1.01 ± 0.013	1.01 ± 0.014	1 ± 0.013	0.971 ± 0.024	1 ± 0.017	0.99 ± 0.043	0.991 ± 0.035	0.969 ± 0.029	0.953 ± 0.017	0.887 ± 0.025
Cc1cnc(Nc2ccc(OCCN3CCCC3)cc2)nc1Nc1cccc(S(=O)(=O)NC(C)(C)C)c1 [Fedratinib]	1.01 ± 0.013	1 ± 0.036	1.02 ± 0.032	1.01 ± 0.027	0.98 ± 0.034	0.972 ± 0.024	0.904 ± 0.026	0.7114 ± 0.0066	0.145 ± 0.0063	0.00883 ± 0.0011	0.00587 ± 0.0018
Cn1cnc2c(F)c(Nc3ccc(Br)cc3F)c(C(=O)NOCCO)cc21 [Binimetinib]	0.9413 ± 0.0039	0.9487 ± 0.0073	0.976 ± 0.024	0.969 ± 0.026	0.942 ± 0.025	0.938 ± 0.053	0.962 ± 0.043	0.919 ± 0.061	0.883 ± 0.026	0.925 ± 0.034	0.879 ± 0.042
C[C@@H]1CCN(C(=O)CC#N)C[C@@H]1N(C)c1ncnc2[nH]ccc12 [Tofacitinib]	0.942 ± 0.038	0.962 ± 0.035	0.952 ± 0.053	0.966 ± 0.045	0.961 ± 0.024	0.962 ± 0.06	0.949 ± 0.047	0.965 ± 0.034	0.955 ± 0.045	0.988 ± 0.051	1.02 ± 0.044
Nc1cc(C(F)(F)F)c(-c2cc(N3CCOCC3)nc(N3CCOCC3)n2)cn1 [Buparlisib]	0.97 ± 0.037	0.956 ± 0.025	0.946 ± 0.026	0.949 ± 0.021	0.935 ± 0.013	0.922 ± 0.01	0.864 ± 0.0088	0.717 ± 0.021	0.341 ± 0.0073	0.102 ± 0.0037	0.0722 ± 0.0025
Cn1cc(-c2cc3c(N4CCN(c5ncc([C@@](C)(N)c6ccc(F)cc6)cn5)CC4)ncnn3c2)cn1 [Avapritinib]	0.927 ± 0.028	0.928 ± 0.034	0.934 ± 0.015	0.922 ± 0.026	0.936 ± 0.02	0.932 ± 0.013	0.9089 ± 0.0059	0.884 ± 0.025	0.84 ± 0.044	0.787 ± 0.047	0.716 ± 0.012
C=CC(=O)N1CCC([C@@H]2CCNc3c(C(N)=O)c(-c4ccc(Oc5ccccc5)cc4)nn32)CC1 [Zanubrutinib]	0.953 ± 0.033	0.956 ± 0.013	0.978 ± 0.025	0.985 ± 0.025	0.978 ± 0.023	0.943 ± 0.044	0.921 ± 0.027	0.942 ± 0.046	0.887 ± 0.053	0.888 ± 0.07	0.904 ± 0.049
CCCS(=O)(=O)Nc1ccc(F)c(C(=O)c2c[nH]c3ncc(-c4ccc(Cl)cc4)cc23)c1F [Vemurafenib]	0.978 ± 0.032	0.983 ± 0.024	0.975 ± 0.044	0.995 ± 0.051	0.982 ± 0.039	0.994 ± 0.05	0.99 ± 0.041	0.991 ± 0.047	0.984 ± 0.039	0.967 ± 0.042	0.7 ± 0.27
COc1cc2c(Oc3ccc4[nH]c(C)cc4c3F)ncnc2cc1OCCCN1CCCC1 [Cediranib]	0.96 ± 0.026	0.985 ± 0.038	0.95 ± 0.023	0.958 ± 0.018	0.992 ± 0.023	0.961 ± 0.017	0.962 ± 0.01	0.9773 ± 0.0095	0.887 ± 0.013	0.971 ± 0.025	0.943 ± 0.022
